Data taken from US20250129056A1, “PROCESS FOR PREPARING HISTONE DEMETHYLASE INHIBITORS” (Celgene Corporation, priority 2021, published 2025).
Values after ≈ are worked out from the molar mass of the structure shown. Values belong to the compound of their own block, whether it stands above or below them.

Experiments:
[1] = Solubility observations in water and common organic solvents; format: physicochemical
[2] = tested on: KDM4 family of histone demethylases; settings: cited from earlier work
[3] = Solubility of Compound 12 in common solvents (Table 5); format: physicochemical; settings: organic solvent or mixture
Source text: The crystallization of Compound 12 also required optimization. Studies were undertaken to find the optimal solvent system of iPrOH/MeTHF.

- solubility ([1]; in most common solvents): poor
- solubility ([1]; in water (low to neutral pH) and most common organic solvents, free acid): undetectable
- solubility ([1]; in water and most common organic solvents): poor
Structure (SMILES): CC(C)c1ccc(N(C)c2ccc3c(c2)OCC[C@H]3CNc2cnccc2C(=O)O)cc1 [Compound 8, 3-({[(4R)-7-{methyl[4-(propan-2-yl)phenyl]amino}-3,4-dihydro-2H-1-benzopyran-4-yl]methyl}amino)pyridine-4-carboxylic acid]
- inhibition of the KDM4 family of histone demethylases [2]: selective inhibitor

- solubility ([1]; in a number of common organic solvents including heptane): high
Structure (SMILES): CC(C)(C)OC(=O)NC[C@@H]1CCOc2cc(Br)ccc21 [Compound 11]

- solubility ([1]; in a number of common solvents): low
- solubility ([3]; solvent 1-PrOH): 5 mg/mL (≈ 12.2 mM)
- solubility ([3]; solvent 2-MeTHF): 63 mg/mL (≈ 153 mM)
- solubility ([3]; solvent CPMe): 26 mg/mL (≈ 63.3 mM)
- solubility ([3]; solvent DMAc): 77 mg/mL (≈ 188 mM)
- solubility ([3]; solvent EtOAc): 22 mg/mL (≈ 53.6 mM)
- solubility ([3]; solvent HOAC): 20 mg/mL (≈ 48.7 mM)
- solubility ([3]; solvent IPA): 3 mg/mL (≈ 7.31 mM)
- solubility ([3]; solvent IPAc): 14 mg/mL (≈ 34.1 mM)
- solubility ([3]; solvent MEK): 28 mg/mL (≈ 68.2 mM)
- solubility ([3]; solvent MIBK): 17 mg/mL (≈ 41.4 mM)
- solubility ([3]; solvent MTBE): 11 mg/mL (≈ 26.8 mM)
- solubility ([3]; solvent MeCN): 5 mg/mL (≈ 12.2 mM)
- solubility ([3]; solvent MeOH): 3 mg/mL (≈ 7.31 mM)
- solubility ([3]; solvent THF): ≥ 150 mg/mL
- solubility ([3]; solvent toluene): 27 mg/mL (≈ 65.8 mM)
Structure (SMILES): CC(C)c1ccc(N(C)c2ccc3c(c2)OCC[C@H]3CNC(=O)OC(C)(C)C)cc1 [Compound 12]
